Measured values reported in PMC9112332, “Structure-Based Design of α-Substituted Mercaptoacetamides as Inhibitors of the Virulence Factor LasB from Pseudomonas aeruginosa” (ACS Infectious Diseases, 2022).
Where two headings read alike, the source gives them in different places.

Experiments:
MMP-8 = MMP-8 (Homo sapiens, UniProt P22894); assay: Human off-target inhibition assay, MMP-8; assay type: biochemical
MMP-14 = MMP-14 (Homo sapiens, UniProt P50281); assay: Human off-target inhibition assay, MMP-14; assay type: biochemical
MMP-2 = target: T1, MMP-2 (Homo sapiens, UniProt P08253); assay: Human off-target inhibition assay, MMP-2; assay type: biochemical
T1 sequence (P08253 110-660): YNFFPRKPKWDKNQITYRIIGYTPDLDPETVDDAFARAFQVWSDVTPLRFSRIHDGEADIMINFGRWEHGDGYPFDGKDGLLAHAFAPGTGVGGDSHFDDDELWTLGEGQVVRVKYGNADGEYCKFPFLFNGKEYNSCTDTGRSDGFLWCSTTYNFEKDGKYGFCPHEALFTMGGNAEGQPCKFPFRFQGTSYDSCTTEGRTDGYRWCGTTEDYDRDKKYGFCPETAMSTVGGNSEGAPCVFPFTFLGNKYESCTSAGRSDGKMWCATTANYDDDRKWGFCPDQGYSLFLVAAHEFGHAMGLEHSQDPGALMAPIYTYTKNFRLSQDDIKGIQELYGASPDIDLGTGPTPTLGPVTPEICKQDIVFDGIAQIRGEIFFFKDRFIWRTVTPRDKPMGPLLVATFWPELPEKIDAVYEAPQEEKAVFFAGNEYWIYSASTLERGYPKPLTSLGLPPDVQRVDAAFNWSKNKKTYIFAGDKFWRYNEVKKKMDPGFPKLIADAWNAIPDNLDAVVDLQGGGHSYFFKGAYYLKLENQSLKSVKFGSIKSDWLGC

ColH-PD = ColH-PD (Hathewaya histolytica, UniProt Q46085); assay: biochemical; set-up: species or system C. histolyticum; conditions: for inhibition at 1 µM: read-out: % inh. of ColH-PD @1µM
Chain of ColH-PD (Q46085 331-721 limits assumed): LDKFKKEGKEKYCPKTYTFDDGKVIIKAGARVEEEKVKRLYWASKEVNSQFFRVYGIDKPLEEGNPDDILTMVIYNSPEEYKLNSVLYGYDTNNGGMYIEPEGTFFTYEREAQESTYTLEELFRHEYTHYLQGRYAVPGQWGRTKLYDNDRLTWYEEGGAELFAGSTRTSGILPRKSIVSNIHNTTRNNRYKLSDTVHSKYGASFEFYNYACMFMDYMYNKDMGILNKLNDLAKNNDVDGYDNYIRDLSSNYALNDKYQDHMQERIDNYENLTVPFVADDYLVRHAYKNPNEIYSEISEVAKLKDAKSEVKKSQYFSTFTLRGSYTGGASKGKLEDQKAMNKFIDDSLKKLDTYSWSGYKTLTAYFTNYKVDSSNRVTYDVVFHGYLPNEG

MMP-7 = target: T2, MMP-7 (Homo sapiens, UniProt P09237); assay: Human off-target inhibition assay, MMP-7; assay type: biochemical
T2 sequence (P09237 95-267): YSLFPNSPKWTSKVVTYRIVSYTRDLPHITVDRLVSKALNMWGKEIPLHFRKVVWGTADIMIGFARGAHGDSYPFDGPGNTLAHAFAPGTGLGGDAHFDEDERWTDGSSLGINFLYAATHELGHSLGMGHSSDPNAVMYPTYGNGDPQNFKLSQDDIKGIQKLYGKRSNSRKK

HDAC-3 = HDAC-3 (Homo sapiens, UniProt O15379); assay: Human off-target inhibition assay, HDAC-3; assay type: biochemical
Chain of HDAC-3 (O15379 whole entry): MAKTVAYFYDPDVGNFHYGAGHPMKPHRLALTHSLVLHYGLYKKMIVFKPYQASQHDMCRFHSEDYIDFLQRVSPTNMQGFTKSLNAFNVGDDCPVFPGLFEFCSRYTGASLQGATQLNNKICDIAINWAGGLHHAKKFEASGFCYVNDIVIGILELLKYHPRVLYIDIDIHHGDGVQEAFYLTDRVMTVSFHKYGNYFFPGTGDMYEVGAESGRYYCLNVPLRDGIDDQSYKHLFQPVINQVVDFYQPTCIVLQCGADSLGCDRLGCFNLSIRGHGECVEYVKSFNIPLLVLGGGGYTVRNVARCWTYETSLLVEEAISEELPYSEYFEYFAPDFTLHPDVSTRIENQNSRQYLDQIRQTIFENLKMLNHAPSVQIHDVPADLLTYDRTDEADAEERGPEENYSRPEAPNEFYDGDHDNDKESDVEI
Chain of HDAC-3 (Q9Y618 395-489 partner limits assumed): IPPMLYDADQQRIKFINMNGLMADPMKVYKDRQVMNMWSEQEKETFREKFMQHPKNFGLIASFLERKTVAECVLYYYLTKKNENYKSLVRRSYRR
Experimental: (§1) Table 3 Activities of Four LasB Inhibitors against the Selected MMPs (% of inhibition at 100 μM) and Further Human Off-Targets ^a | column: 3; 12; 13; 23

LasB = LasB (Pseudomonas aeruginosa, UniProt Q02RJ6); assay: LasB inhibition assay (FRET-based, in vitro)
Chain of LasB (Q02RJ6 198-498): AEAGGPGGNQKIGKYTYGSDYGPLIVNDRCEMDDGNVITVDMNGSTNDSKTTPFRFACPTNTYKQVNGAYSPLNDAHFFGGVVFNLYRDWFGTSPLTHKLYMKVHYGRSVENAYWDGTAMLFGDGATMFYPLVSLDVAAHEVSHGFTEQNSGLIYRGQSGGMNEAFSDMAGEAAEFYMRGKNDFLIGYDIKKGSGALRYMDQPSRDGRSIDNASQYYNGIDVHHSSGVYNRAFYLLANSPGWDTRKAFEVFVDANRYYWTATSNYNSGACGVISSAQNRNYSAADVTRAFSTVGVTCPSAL
Experimental: LasB Inhibition Assay. The purification of LasB from P. aeruginosa P14 supernatant as well
as the subsequent performance of the FRET-based in vitro inhibition assay was performed as
described previously.1 All samples were run in duplicate for each condition, and experiments
were performed independently at least twice.

MMP-1 = target: T3, MMP-1 (Homo sapiens, UniProt P03956); assay: Human off-target inhibition assay, MMP-1; assay type: biochemical
T3 sequence (P03956 100-469): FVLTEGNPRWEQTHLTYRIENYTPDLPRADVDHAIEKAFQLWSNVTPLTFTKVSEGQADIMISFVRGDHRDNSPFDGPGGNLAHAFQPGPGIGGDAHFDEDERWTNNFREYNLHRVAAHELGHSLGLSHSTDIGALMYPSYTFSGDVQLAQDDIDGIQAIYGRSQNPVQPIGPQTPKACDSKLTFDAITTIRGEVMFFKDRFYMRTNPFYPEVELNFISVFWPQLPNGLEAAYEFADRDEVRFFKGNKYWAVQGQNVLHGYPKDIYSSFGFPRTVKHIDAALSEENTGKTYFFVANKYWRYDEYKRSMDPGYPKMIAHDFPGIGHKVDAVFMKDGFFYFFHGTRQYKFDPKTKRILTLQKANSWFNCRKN

HDAC-8 = target: T4, HDAC-8 (Homo sapiens, UniProt Q9BY41); assay: Human off-target inhibition assay, HDAC-8; assay type: biochemical
T4 sequence (Q9BY41 1-377): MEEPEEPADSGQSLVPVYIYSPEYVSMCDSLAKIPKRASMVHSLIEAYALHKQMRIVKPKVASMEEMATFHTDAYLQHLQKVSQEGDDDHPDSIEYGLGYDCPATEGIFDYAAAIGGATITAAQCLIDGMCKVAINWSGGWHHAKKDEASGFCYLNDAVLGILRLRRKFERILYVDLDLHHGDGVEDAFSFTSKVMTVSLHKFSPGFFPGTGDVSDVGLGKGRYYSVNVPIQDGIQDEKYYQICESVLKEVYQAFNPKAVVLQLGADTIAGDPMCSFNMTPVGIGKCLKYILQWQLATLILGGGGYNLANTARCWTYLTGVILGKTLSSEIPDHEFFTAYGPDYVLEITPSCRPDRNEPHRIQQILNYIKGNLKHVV
Experimental: as §1

MMP-3 = MMP-3 (Homo sapiens, UniProt P08254); assay: Human off-target inhibition assay, MMP-3; assay type: biochemical
Chain of MMP-3 (P08254 100-477): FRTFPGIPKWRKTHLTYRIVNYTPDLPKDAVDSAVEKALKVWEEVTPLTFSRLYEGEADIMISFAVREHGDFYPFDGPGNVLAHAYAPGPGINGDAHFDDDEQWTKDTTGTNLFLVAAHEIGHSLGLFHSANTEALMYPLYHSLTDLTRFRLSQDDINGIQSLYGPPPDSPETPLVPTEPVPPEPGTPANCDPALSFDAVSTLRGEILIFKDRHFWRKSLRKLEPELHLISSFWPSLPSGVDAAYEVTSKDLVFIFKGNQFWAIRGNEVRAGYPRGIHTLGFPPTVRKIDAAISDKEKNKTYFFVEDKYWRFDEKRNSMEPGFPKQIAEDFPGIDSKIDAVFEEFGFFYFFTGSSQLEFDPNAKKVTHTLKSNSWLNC

G. mellonella larvae = assay: In vivo Galleria mellonella virulence assay; conditions: compound with wt PA14 supernatant, after 6 days
[1] = test system: A549 cells treated with wt PA14 supernatant; conditions: 15% (v/v) wt PA14 supernatant; for effect on viability of A549 cells treated with wt PA14 supernatant (in words): MTT
[2] = test system: A549 cells treated with ΔlasB PA14 supernatant; assay type: cell-based, human; conditions: 15% (v/v) ΔlasB PA14 supernatant, MTT
[3] = test system: NHDF cells treated with wt PA14 supernatant; assay type: cell-based, human; conditions: 15% (v/v) wt PA14 supernatant; for effect on viability of NHDF cells treated with wt PA14 supernatant (in words): MTT
ADAM17 = ADAM17 (Homo sapiens, UniProt P78536); assay: Human off-target inhibition assay, ADAM17 (TACE); assay type: biochemical
Chain of ADAM17 (P78536 215-824): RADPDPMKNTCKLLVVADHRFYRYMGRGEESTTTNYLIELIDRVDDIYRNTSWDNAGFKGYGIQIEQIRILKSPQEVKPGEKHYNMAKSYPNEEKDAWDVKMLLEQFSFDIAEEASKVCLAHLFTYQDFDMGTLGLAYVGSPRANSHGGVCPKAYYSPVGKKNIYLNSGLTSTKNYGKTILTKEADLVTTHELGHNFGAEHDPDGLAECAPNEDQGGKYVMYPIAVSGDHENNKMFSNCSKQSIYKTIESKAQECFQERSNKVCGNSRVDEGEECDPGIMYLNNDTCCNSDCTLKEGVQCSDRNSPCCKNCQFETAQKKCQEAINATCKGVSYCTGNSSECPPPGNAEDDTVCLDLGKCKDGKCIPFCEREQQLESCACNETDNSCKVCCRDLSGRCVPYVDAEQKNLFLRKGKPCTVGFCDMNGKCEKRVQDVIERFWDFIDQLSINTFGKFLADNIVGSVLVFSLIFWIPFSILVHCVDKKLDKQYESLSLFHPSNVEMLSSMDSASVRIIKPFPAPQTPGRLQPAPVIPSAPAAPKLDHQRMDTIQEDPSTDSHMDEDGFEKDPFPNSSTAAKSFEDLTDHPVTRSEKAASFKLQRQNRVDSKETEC

zebrafish embryos = assay: Zebrafish embryo toxicity (maximum tolerated concentration) assay; assay type: in vivo; conditions: for toxicity (larvae with toxicity signs): Table S2
[4] = Cytotoxicity assay, HepG2; assay type: cell-based; conditions: HepG2 cells; human hepatoma cell line
P. aeruginosa PA14 = assay: Antibacterial activity (MIC) assay; assay type: cell-based, Pseudomonas aeruginosa
[5] = Cytotoxicity assay, HEK293; assay type: cell-based; conditions: HEK293 cells; human embryonic kidney cells
Cytotoxicity assay, A549 = assay type: cell-based; conditions: A549 cells; adenocarcinomic human alveolar basal epithelial cells
[6] = test system: A549 cells treated with wt PA14 supernatant; assay: cells; conditions: Homo sapiens, A549, 24 h, read-out: increase in viability of A549 cells

Chain of MMP-8 (P22894 101-467): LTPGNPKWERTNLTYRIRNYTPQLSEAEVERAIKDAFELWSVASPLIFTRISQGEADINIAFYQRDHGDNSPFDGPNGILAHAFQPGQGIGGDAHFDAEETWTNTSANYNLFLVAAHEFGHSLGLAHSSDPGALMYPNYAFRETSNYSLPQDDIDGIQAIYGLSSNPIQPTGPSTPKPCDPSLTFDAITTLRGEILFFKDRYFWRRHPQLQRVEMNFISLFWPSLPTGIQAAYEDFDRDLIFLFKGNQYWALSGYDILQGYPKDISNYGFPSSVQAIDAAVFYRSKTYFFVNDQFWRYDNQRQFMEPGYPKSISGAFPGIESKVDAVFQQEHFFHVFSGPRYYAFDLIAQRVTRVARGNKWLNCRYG

Cc1ccc(NC(=O)C(S)Cc2ccccc2)cc1 (centres unmarked) [Compound 3]
inhibition at 100 µM (MMP-8): < 10%
inhibition at 100 µM (MMP-14): < 10%
inhibition at 100 µM (MMP-2): < 10%
Ki (ColH-PD): 50 ± 10 nM
inhibition at 100 µM (MMP-7): < 10%
IC50 (HDAC-3): > 100 µM
boost in potency compared to compound 4 (LasB; LasB IC50 ratio vs compound 4): 12 fold
ligand efficiency (LE) (LasB; calculated from LasB activity): 0.43
lipophilic ligand efficiency (LLE) (LasB; calculated from LasB activity): 2.37
inhibition at 100 µM (MMP-1): < 10%
IC50 (HDAC-8): > 100 µM
inhibition at 100 µM (MMP-3): < 10%

O=C(Nc1ccccc1)C(S)Cc1ccccc1 (centres unmarked) [Compound 5]
Ki (ColH-PD): 400 ± 40 nM
IC50 (LasB; read-out: IC50 against LasB, mean and SD of at least two independent experiments): 1200 ± 100 nM

O=C(Nc1ccc([N+](=O)[O-])cc1)C(S)Cc1ccccc1 (centres unmarked) [Compound 11]
inhibition at 1 µM (ColH-PD): 88 ± 2%
IC50 (LasB): 1000 ± 100 nM

COc1ccc(NC(=O)C(S)Cc2ccccc2)cc1 (centres unmarked) [Compound 12, 2-Mercapto-N-(4-methoxyphenyl)-3-phenylpropanamide]
survival of larvae (G. mellonella larvae): 70 ± 5%
effect on viability of A549 cells treated with wt PA14 supernatant (in words) [1]: Dose-dependent effect
effect on A549 cells treated with ΔlasB PA14 supernatant (in words) [2]: no effect
inhibition at 100 µM (MMP-8): 12 ± 2%
inhibition at 100 µM (MMP-14): < 10%
effect on viability of NHDF cells treated with wt PA14 supernatant (in words) [3]: Concentrations-dependent effects
inhibition at 100 µM (MMP-2): < 10%
IC50 (ADAM17): 4.1 ± 0.1 µM
Ki (ColH-PD): 40 ± 10 nM
inhibition at 100 µM (MMP-7): < 10%
Survival rate % (zebrafish embryos; 2 µM): 100%
toxicity (larvae with toxicity signs) (zebrafish embryos; 2 µM): No toxicity signs were observed
Survival rate % (zebrafish embryos; 30 µM): 0%
embryo observation (zebrafish embryos; 30 µM, 2 dpf): imp. dev.
embryo observation (zebrafish embryos; 30 µM, 3 dpf): all dead
toxicity (larvae with toxicity signs) (zebrafish embryos; 30 µM): 100%
Survival rate % (zebrafish embryos; 50 µM): 0%
embryo observation (zebrafish embryos; 50 µM, 3 dpf): all dead
toxicity (larvae with toxicity signs) (zebrafish embryos; 50 µM): 100%
Survival rate % (zebrafish embryos; 100 µM): 0%
embryo observation (zebrafish embryos; 100 µM, 2 dpf): all dead
toxicity (larvae with toxicity signs) (zebrafish embryos; 100 µM): 100%
maximum tolerated concentration (MTC) (zebrafish embryos; zebrafish embryos, until 120 hpf): ≤ 2 µM
IC50 (HDAC-3): > 100 µM
IC50 (LasB): 700 ± 30 nM
inhibition at 100 µM (MMP-1): < 10%
IC50 (HDAC-8): > 100 µM
inhibition at 100 µM (MMP-3): < 10%

O=C(Nc1ccc(O)cc1)C(S)Cc1ccccc1 (centres unmarked) [Compound 13]
effect on viability of A549 cells treated with wt PA14 supernatant (in words) [1]: Dose-dependent effect
IC50 [4]: > 100 µM
effect on A549 cells treated with ΔlasB PA14 supernatant (in words) [2]: no effect
MIC (P. aeruginosa PA14; Pseudomonas aeruginosa, P. aeruginosa PA14): > 100 µM
reduction of bacterial growth (P. aeruginosa PA14; at 100 μM): less than 10%
inhibition at 100 µM (MMP-8): 19 ± 4%
IC50 [5]: > 100 µM
inhibition at 100 µM (MMP-14): < 10%
effect on viability of NHDF cells treated with wt PA14 supernatant (in words) [3]: Concentrations-dependent effects
IC50 (Cytotoxicity assay, A549): > 100 µM
inhibition at 100 µM (MMP-2): < 10%
IC50 (ADAM17): 2.3 ± 1.4 µM
Ki (ColH-PD): 100 ± 20 nM
inhibition at 100 µM (MMP-7): < 10%
IC50 (HDAC-3): > 250 µM
IC50 (LasB): 600 ± 40 nM
inhibition at 100 µM (MMP-1): < 10%
IC50 (HDAC-8): > 250 µM
inhibition at 100 µM (MMP-3): < 10%

Cc1ccc(CC(S)C(=O)Nc2ccccc2)cc1 (centres unmarked) [Compound 14]
inhibition at 1 µM (ColH-PD): 69 ± 3%
IC50 (LasB): 2800 ± 300 nM

O=C(Nc1ccccc1)C(S)Cc1ccc(O)cc1 (centres unmarked) [Compound 15]
inhibition at 1 µM (ColH-PD): 63 ± 2%
IC50 (LasB): 7400 ± 600 nM
decrease in activity compared to compound 3 (LasB; LasB IC50 ratio vs compound 3): 15 fold

O=C(Nc1ccccc1)C(S)Cc1ccc(O)c([N+](=O)[O-])c1 (centres unmarked) [Compound 16]
inhibition at 1 µM (ColH-PD): 74 ± 5%
IC50 (LasB): 2500 ± 200 nM

O=C(Nc1ccccc1)C(S)Cc1ccc(Cl)cc1 (centres unmarked) [Compound 17]
IC50 (LasB): 1100 ± 100 nM

O=C(Nc1nccs1)C(S)Cc1ccccc1 (centres unmarked) [Compound 18]
inhibition at 1 µM (ColH-PD): 34 ± 3%
IC50 (LasB): 1600 ± 100 nM

COC(=O)c1ccsc1NC(=O)C(S)Cc1ccccc1 (centres unmarked) [Compound 19]
IC50 (LasB): 8000 ± 1100 nM

O=C(Nc1cccnc1)C(S)Cc1ccccc1 (centres unmarked) [Compound 20]
IC50 (LasB): 1200 ± 40 nM

O=C(Nc1ccccn1)C(S)Cc1ccccc1 (centres unmarked) [Compound 21]
IC50 (LasB): 3100 ± 200 nM

O=C(Nc1ccncc1)C(S)Cc1ccccc1 (centres unmarked) [Compound 22]
IC50 (LasB): 4900 ± 500 nM

COc1ccc2nc(NC(=O)C(S)Cc3ccccc3)sc2c1 (centres unmarked) [Compound 24]
effect on viability of A549 cells treated with wt PA14 supernatant (in words) [1]: Dose-dependent effect
viability at 50 µM [6]: 80 ± 15%
effect on A549 cells treated with ΔlasB PA14 supernatant (in words) [2]: no effect
Ki (ColH-PD): 28000 ± 1000 nM
IC50 (LasB): 1000 ± 100 nM

O=C(Nc1nc2ccc(Cl)cc2s1)C(S)Cc1ccccc1 (centres unmarked) [Compound 25]
IC50 (LasB): 2400 ± 200 nM

O=C(Nc1nc2ccccc2[nH]1)C(S)Cc1ccccc1 (centres unmarked) [Compound 26]
inhibitory activity against LasB (in words) (LasB; compared to compound 23): dramatic decrease in the inhibitory activity

CC(C)C[C@H](NP(=O)(O)O[C@@H]1O[C@@H](C)[C@H](O)[C@@H](O)[C@H]1O)C(=O)N[C@@H](Cc1c[nH]c2ccccc12)C(=O)O [Pam, phosphoramidon, reference compound]
cell integrity and morphology of A549 cells (bright-field imaging) [1]: cell integrity and morphology were maintained
cell integrity and morphology of NHDF cells (bright-field imaging) [3]: cell integrity and morphology were maintained
